This note sets out measurements from patent US5840740A, “Aminosterol compounds and a method of treating infection using the aminosterol compounds” (priority 1995, dated 1998).

A value given as a limit tells only on which side of the number the result lay.

Assay [1] concerns chick embryo vitelline capillaries. The experiment in a line: Chick embryo vitelline capillary regression assay. The assay is classed as in vivo. Details: key to vascular reactivity (capillary regression): +: Vascular reactivity; 0: No vascular reactivity; +/-: Equivocal reactivity. The conditions noted are these: for vascular reactivity (capillary regression): 60 min; for Chick embryo diss. assay, Minimum Effective Concentration: Table II. The protocol: Using the chick embryo vitelline capillaries assay, compounds were tested for their ability to induce capillary regression. Each compound was applied in 0.1 ml of 15% Ficol 400 and PBS onto the embryo, and vascular regression was assessed after 60 minutes.
The 3-day chick embryo consists of an embryonic disc from which numerous vessels emerge and return, forming a "figure 8"-shaped structure--the embryo in the center with vascular loops extending outward over both poles. […] Following a lag period of around 15 minutes, the constriction of continuity between capillary and secondary vessels, generally on the "avenous" side, was observed. Continued pulsatile blood flow progressed, resulting in a "swelling" of the blind tube, followed by a pinching off of the remaining connection and formation of an enclosed vascular sac resembling a "blood island." This process progressed until only the largest vessels remained intact.

The subject of a further assay is Xenopus tadpole. Particulars: stage 59-60, 10 μg/ml; in words.

As to `CC(COS(=O)(=O)O)C(=O)CC[C@@H](C)[C@H]1CC[C@H]2[C@@H]3[C@H](O)C[C@H]4C[C@@H](NCCCNCCCCN)CC[C@]4(C)[C@H]3CC[C@]12C` (single isomer, unassigned) [Compound 1360], the “vascular reactivity (capillary regression)” value (“vascular reactivity” for short) in assay [1] (1 μg applied) is on record as 0. In assay [1], the “Chick embryo diss. assay, Minimum Effective Concentration” value (from here on “Chick embryo diss. assay”) was greater than 10 µg. For the same compound, the “effect on chick embryo vessels / blood” value in assay [1] (in words) is recorded as “Within 20 minutes, the blood circulating through the embryonic vessels exhibited a brighter red color”. In addition, the “pharmacological response in tadpole” value in the assay on Xenopus tadpole was “Swelling and lysis of certain erythrocytes occurred, resulting in accumulation of nuclei within certain small vessels of the tail. Subsequent tissue breakdown occurred in areas of tail surrounding these nuclear plugs”.

Take `COC(=O)CC[C@@H](C)[C@H]1CC[C@H]2[C@@H]3C[C@@H](O)[C@H]4C[C@H](NCCCNCCCCNCCCN)CC[C@]4(C)[C@H]3CC[C@]12C` [Compound 465]: in the assay with Xenopus tadpole, the “pharmacological response in tadpole” value was “pharmacologic activity similar to that seen for FX 3”.

With `CC(C)CCC[C@@H](C)[C@H]1CC[C@H]2[C@@H]3[C@H](O)C[C@H]4C[C@@H](NCCCNCCCCN)CC[C@]4(C)[C@H]3CC[C@]12C` [Compound 371], the “vascular reactivity” value was 0 in assay [1] (0.001 μg applied); 0 in assay [1] (0.01 μg applied); 0 in assay [1] (0.1 μg applied); “+/-” in assay [1] (1 μg applied); “+” in assay [1] (10 μg applied). Further, the “Chick embryo diss. assay” value in assay [1] is 1 to 10 µg. The “pharmacological response in tadpole” value in the assay with Xenopus tadpole is “effects like those produced by compound 1436”.

On to `C[C@H](CCC(=O)O)[C@H]1CC[C@H]2[C@@H]3[C@H](O)C[C@@H]4C[C@@H](NCCCNCCCCNCCCN)CC[C@]4(C)[C@H]3CC[C@]12C` [Compound 413], for which the “vascular reactivity” value in assay [1] (1 μg applied) amounted to 0. The “Chick embryo diss. assay” value in assay [1] is greater than 1 µg. Besides, the “pharmacological response in tadpole” value with Xenopus tadpole is given as “effects like those produced by compound 1436”.

For the compound `COC(=O)CC[C@@H](C)[C@H]1CC[C@H]2[C@@H]3[C@H](O)C[C@@H]4C[C@@H](NCCN)CC[C@]4(C)[C@H]3CC[C@]12C` [Compound 409], the “vascular reactivity” value in assay [1] (1 μg applied) was found to be 0. For the same compound, in assay [1], the “Chick embryo diss. assay” value was greater than 1 µg. Further, the “pharmacological response in tadpole” value with Xenopus tadpole is “functionally similar to compound 1437”.

Turning to `C[C@H](CCC(=O)O)[C@H]1CC[C@H]2[C@@H]3[C@H](O)C[C@H]4C[C@@H](NCCCNCCCCNCCCN)CC[C@]4(C)[C@H]3CC[C@]12C` [Compound 397], the “Chick embryo diss. assay” value in assay [1] amounted to 1 µg.

Consider `C[C@H](CCC(=O)O)[C@H]1CC[C@H]2[C@@H]3CC[C@@H]4C[C@H](NCCCNCCCCNCCCN)CC[C@]4(C)[C@H]3C[C@H](O)[C@]12C` [Compound 449], for which, in assay [1], the “Chick embryo diss. assay” value is greater than 1 µg.

Consider `COC(=O)CC[C@@H](C)[C@H]1CC[C@H]2[C@@H]3[C@H](O)C[C@@H]4C[C@@H](NCCCNCCCCNCCCN)CC[C@]4(C)[C@H]3CC[C@]12C` [Compound 411], for which the “vascular reactivity” value in assay [1] (1 μg applied) is “+/-”. Also, the “Chick embryo diss. assay” value in assay [1] was greater than 1 µg.

Regarding `C[C@H](CCC(=O)O)[C@H]1CC[C@H]2[C@@H]3[C@H](O)C[C@H]4C[C@H](NCCCNCCCCN)CC[C@]4(C)[C@H]3CC[C@]12C` [Compound 382], the “vascular reactivity” value in assay [1] (0.001 μg applied) is 0; in assay [1] (0.01 μg applied), 0; in assay [1] (0.1 μg applied), 0; in assay [1] (1 μg applied) it was “+”; in assay [1] (10 μg applied), “+”. In assay [1], the “Chick embryo diss. assay” value amounted to 0.01 µg.

With `CC(C)CCC[C@@H](C)[C@H]1CC[C@H]2[C@@H]3[C@H](O)C[C@H]4C[C@H](N)CC[C@]4(C)[C@H]3CC[C@]12C` [Compound 1363], the “pharmacological response in tadpole” value with Xenopus tadpole is listed as “pharmacologic activity similar to Fraction 1”.
